# Measured values: US20040018150A1, “Prodrugs of phosphonate nucleotide analogues and methods for selecting and making same” (priority 2003, published 2004)
# Read-outs that look alike come from different tables or passages of the source.
# Legend:
# [1] = Stability in human plasma; type: in vitro ADME
# Method: (§1) The in vitro metabolism and stability of separated diastereomers were determined in PLCE, MT-2 extract and human plasma. A biological sample listed below, 80 μL, was transferred into a screw-capped centrifuge tube and incubated at 37° C. for 5 min. A solution containing 0.2 mg/mL of the test compound in a suitable buffer, 20 μL, was added to the biological sample and mixed. The reaction mixture, 20 μL, was immediately sampled and mixed with 60 μL of methanol containing 0.015 mg/mL of 2-hydroxymethylnaphthalene as an internal standard for HPLC analysis. The sample was taken as the time-zero sample. Then, at specific time points, the reaction mixture, 20 μL, was sampled and mixed with 60 μL of methanol containing the internal standard. The mixture thus obtained was centrifuged at 15,000 G for 5 min and the supernatant was analyzed with HPLC under the conditions described below.
# (3) Human plasma (pooled normal human plasma from George King Biomedical Systems, Inc.)
# In the study for human plasma, the test compound was dissolved in TBS. TBS (tris-buffered saline, Sigma) contains 0.05 M Tris, 0.0027 M potassium chloride, and 0.138 M sodium chloride. pH 7.5 at 37° C.
# (§2) The HPLC analysis was carried out under the following conditions.
# [2] = Stability / hydrolysis in MT-2 cell extract; type: in vitro ADME
# Method: as §1
# (2) MT-2 cell extract was prepared from MT-2 cells according to the published procedure [A. Pompon, I. Lefebvre, J.-L. Imbach, S. Kahn, and D. Farquhar, “Antiviral Chemistry & Chemotherapy”, 5:91-98 (1994)] except for using HEPES buffer described below as the medium.
# In the study for MT-2 cell extracts, the test compound was dissolved in HEPES buffer. HEPES buffer contains 0.010 M HEPES, 0.05 M potassium chloride, 0.005 M magnesium chloride, and 0.005 M dl-dithiothreitol. pH 7.4 at 37° C.
# as §2
# [3] = test system: PLCE (porcine liver carboxyesterase); assay: in vitro; type: in vitro ADME; details: 37° C., PBS pH 7.4
# Method: as §1
# (§3) (1) PLCE (porcine liver carboxyesterase from Sigma, 160 u/mg protein, 21 mg protein/mL) diluted 20 fold with PBS (phosphated-buffered saline).
# (§4) In the study for PLCE, the test compound was dissolved in PBS. PBS (phosphate-buffered saline, Sigma) contains 0.01 M phosphate, 0.0027 M potassium chloride, and 0.137 M sodium chloride. pH 7.4 at 37° C.
# as §2
# [4] = test system: porcine liver carboxyesterase (PLCE); assay: in vitro; type: in vitro ADME; details: pig; 37° C., PBS pH 7.4; read-out: PLCE hydrolysis rate t1/2
# Method: as §1, §3, §4, §2
# [5] = Incubation of radiolabeled PMPA prodrugs or PMPA in human whole blood; metabolites in plasma, PBMCs and RBCs; type: in vitro ADME; details: human blood; for Total C-14 Recovered: 1 h incubation, 60 μg-eq; for Metabolites (% of Total Peak Area): GS 7340: 1 h
# Method: After 1 hour, plasma, red blood cells (RBCs) and peripheral blood mononuclear cells (PBMCs) were isolated and analyzed by HPLC with radiometric detection.
# [6] = Excretion and tissue distribution of radiolabelled prodrug in dogs; details: dogs; for % Dose / Conc.: oral 10 mg-eq. PMPA/kg
# Method: Plasma and peripheral blood mononuclear cells (PBMCs) were obtained over the 24-hr period. Urine and feces were cage collected over 24 hr. At 24 h after the dose, the animals were sacrificed and tissues removed for analysis. Total radioactivity in tissues was determined by oxidation and liquid scintillation counting.
# [7] = Cytotoxicity in MT-2 cells; details: human
# HIV-1 = assay: microbe, parasite or virus in culture
smiles,measurement,setting,value
"CC(C)OC(=O)[C@H](C)N[P@](=O)(CO[C@H](C)Cn1cnc2c(N)ncnc21)Oc1ccccc1 (single isomer, unassigned) [GS-7340]",Human Plasma Stability (HP) product,"[1]; 37° C., TBS pH 7.5",Met. Y
same,half-life at 0.04 mg/mL,"[1]; pH 7.5, human plasma, read-out: Stability T 1/2 Human Plasma",90 min
same,MT-2 extract hydrolysis product,"[2]; 37° C., HEPES buffer pH 7.4",Met. X & PMPA
same,half-life at 0.04 mg/mL,"[2]; human, pH 7.4, MT-2 cell extract, read-out: Stability T 1/2 MT-2 Cell Extract",28.3 min
same,PLCE hydrolysis product,[3],Met. X & PMPA
same,half-life at 0.04 mg/mL,[4],3.3 min
same,Total C-14 Recovered,[5]; PBMC,1.25 μg-eq
same,Metabolites (% of Total Peak Area): GS 7340,[5]; Plasma/FP,84%
same,Total C-14 Recovered,[5]; Plasma/FP,43.0 μg-eq
same,Metabolites (% of Total Peak Area): GS 7340,[5]; RBC/FP,57%
same,Total C-14 Recovered,[5]; RBC/FP,12.6 μg-eq
same,radioactivity in plasma due to intact GS-7340,[5]; plasma after 1 hour,84%
same,% Dose,"[6]; Abdominal fat, 24 h",0.00%
same,Conc.,"[6]; Abdominal fat, 24 h",0.90 ug-eq/g
same,% Dose,"[6]; Adrenal Gland, 24 h",0.00%
same,Conc.,"[6]; Adrenal Gland, 24 h",3.47 ug-eq/g
same,% Dose,"[6]; Axillary Lymph Nodes, 24 h",0.01%
same,Conc.,"[6]; Axillary Lymph Nodes, 24 h",5.54 ug-eq/g
same,% Dose,"[6]; Bile, 24 h",0.22%
same,Conc.,"[6]; Bile, 24 h",40.48 ug-eq/g
same,% Dose,"[6]; Bone Marrow, 24 h",0.00%
same,Conc.,"[6]; Bone Marrow, 24 h",2.05 ug-eq/g
same,% Dose,"[6]; Brain, 24 h",0.00%
same,Conc.,"[6]; Brain, 24 h",<LOD
same,% Dose,"[6]; Cerebrospinal Fluid, 24 h",0.00%
same,Conc.,"[6]; Cerebrospinal Fluid, 24 h",0.00 ug-eq/g
same,% Dose,"[6]; Duodenum, 24 h",0.44%
same,Conc.,"[6]; Duodenum, 24 h",8.77 ug-eq/g
same,% Dose,"[6]; Eye (L + R), 24 h",0.00%
same,Conc.,"[6]; Eye (L + R), 24 h",0.23 ug-eq/g
same,% Dose,"[6]; Feces, collected over 24 hr",0.19%
same,% Dose,"[6]; Femoral Bone, 24 h",0.00%
same,Conc.,"[6]; Femoral Bone, 24 h",0.28 ug-eq/g
same,% Dose,"[6]; Gall bladder, 24 h",0.04%
same,Conc.,"[6]; Gall bladder, 24 h",25.02 ug-eq/g
same,% Dose,"[6]; Heart, 24 h",0.15%
same,Conc.,"[6]; Heart, 24 h",1.97 ug-eq/g
same,% Dose,"[6]; Ileum, 24 h",0.16%
same,Conc.,"[6]; Ileum, 24 h",4.61 ug-eq/g
same,% Dose,"[6]; Iliac Lymph Nodes, 24 h",0.01%
same,Conc.,"[6]; Iliac Lymph Nodes, 24 h",5.42 ug-eq/g
same,% Dose,"[6]; Inguinal Lymph Nodes, 24 h",0.00%
same,Conc.,"[6]; Inguinal Lymph Nodes, 24 h",4.12 ug-eq/g
same,% Dose,"[6]; Jejunum, 24 h",0.79%
same,Conc.,"[6]; Jejunum, 24 h",4.16 ug-eq/g
same,% Dose,"[6]; Kidney, 24 h",3.78%
same,Conc.,"[6]; Kidney, 24 h",80.21 ug-eq/g
same,% Dose,"[6]; Large Intestine, 24 h",2.65%
same,Conc.,"[6]; Large Intestine, 24 h",47.20 ug-eq/g
same,% Dose,"[6]; Liver, 24 h",16.45%
same,Conc.,"[6]; Liver, 24 h",52.94 ug-eq/g
same,% Dose,"[6]; Lungs, 24 h",0.34%
same,Conc.,"[6]; Lungs, 24 h",4.33 ug-eq/g
same,% Dose,"[6]; Mesenteric Lymph Nodes, 24 h",0.04%
same,Conc.,"[6]; Mesenteric Lymph Nodes, 24 h",6.88 ug-eq/g
same,% Dose,[6]; PBMC,0.00%
same,Conc.,"[6]; PBMC, calculated using typical recovery of 15 × 10^6 cells total, mean PBMC volume 0.2 picoliters/cell",63.20 ug-eq/g
same,% Dose,"[6]; Pancreas, 24 h",0.01%
same,Conc.,"[6]; Pancreas, 24 h",3.51 ug-eq/g
same,% Dose,"[6]; Pituitary Gland, 24 h",0.00%
same,Conc.,"[6]; Pituitary Gland, 24 h",1.80 ug-eq/g
same,Conc.,[6]; Plasma at 0.25 h,3.48 ug-eq/g
same,% Dose,[6]; Plasma at 24 h,0.00%
same,Conc.,[6]; Plasma at 24 h,0.20 ug-eq/g
same,% Dose,"[6]; Prostate, 24 h",0.00%
same,Conc.,"[6]; Prostate, 24 h",2.14 ug-eq/g
same,% Dose,"[6]; Salivary Gland (L + R), 24 h",0.03%
same,Conc.,"[6]; Salivary Gland (L + R), 24 h",5.54 ug-eq/g
same,% Dose,"[6]; Skeletal Muscle, 24 h",0.01%
same,Conc.,"[6]; Skeletal Muscle, 24 h",1.12 ug-eq/g
same,% Dose,"[6]; Skin, 24 h",0.00%
same,Conc.,"[6]; Skin, 24 h",0.95 ug-eq/g
same,% Dose,"[6]; Spinal Cord, 24 h",0.00%
same,Conc.,"[6]; Spinal Cord, 24 h",0.04 ug-eq/g
same,% Dose,"[6]; Spleen, 24 h",0.17%
same,Conc.,"[6]; Spleen, 24 h",8.13 ug-eq/g
same,% Dose,"[6]; Stomach, 24 h",0.26%
same,Conc.,"[6]; Stomach, 24 h",2.68 ug-eq/g
same,% Dose,"[6]; Testes (L + R), 24 h",0.02%
same,Conc.,"[6]; Testes (L + R), 24 h",2.01 ug-eq/g
same,% Dose,"[6]; Thyroid Gland, 24 h",0.00%
same,Conc.,"[6]; Thyroid Gland, 24 h",4.78 ug-eq/g
same,% Dose,"[6]; Total GI Tract Contents, 24 h",21.64%
same,% Dose,"[6]; Total Recovery, 24 h",68.96%
same,% Dose,"[6]; Urine, collected over 24 hr",14.73%
same,% Dose,"[6]; Whole Blood, 24 h",0.16%
same,Conc.,"[6]; Whole Blood, 24 h",0.20 ug-eq/g
same,"increase of levels of PMPA in the lymphatic tissues, bone marrow, and skeletal muscle","[6]; 24 hours after single oral dose, versus TDF",10 fold
same,CC50,"[7]; CC50, cell culture",≥ 40000 nM
same,CC50,"[7]; Cytotoxicity CC50, MT-2 cells",> 40000 nM
same,IC50,"HIV-1; Human immunodeficiency virus 1, MT2",5 nM
same,IC50,"HIV-1; Human immunodeficiency virus 1, MT2, read-out: HIV IC50",5 nM
same,IC50,"HIV-1; Human immunodeficiency virus 1, MT2, read-out: HIV-1 Activity IC50",5 nM
